Test results published in patent US20250144224A1, “ABL INHIBITORS AND USES THEREOF” (The Regents of the University of California, priority 2021, published 2025).

What was measured:
[1] = Parallel artificial membrane permeability assay (PAMPA); type: in vitro ADME; settings: 100 μM in PBS, 5 h, LC-MS
Method: PAMPA was performed by Quintara Discovery using the BioCoat Pre-coated PAMPA Plate System (Corning) as described previously (15) and based on manufacturer's recommendations. All compounds were assessed at 100 μM in PBS. Compound concentrations in donor and acceptor compartments were quantified using liquid chromatography-mass spectrometry (LC-MS) 5 h following compound addition into the donor compartment.

[2] = test system: K562 CRISPRi or CRISPRa cells with IFITM1-3 expression modulation; assay: Chemical-genetic interaction mapping (IC50 shift in cell viability assay); type: cell-based, human; settings: IFITM1-3 knockdown (CRISPRi) or overexpression (CRISPRa), 72 h
Method: Cell viability was assessed by CellTiter-Glo (CTG) Luminescent Cell Viability Assay (Promega). Cells were equilibrated to room temperature before the addition of diluted (1:4 CTG reagent:PBS) CTG reagent (100 μL per well). Plates were agitated on an orbital shaker and luminescence signal was measured on a SpectraMax M5 (Molecular Devices) or Spark (Tecan) plate reader. Repeated measurements of luminescence were performed as technical replicates to determine incubation times optimal for signal-to-noise. Luminescence measurements were normalized to DMSO-treated values to determine relative cell viability.
Cells treated with compounds were evaluated for viability as described herein. […] The same top concentrations were used in K562 CRISPRa cells with the exception of HJB97 (1 μM), JQ1 (1 μM), MZ1 (1 μM), and dBET6 (100 nM). Using Prism 9 (GraphPad Software), a 4-parameter nonlinear regression model was fit to the viability data to determine IC50 values. IC50 values of sgRNA+ cells were normalized to that of non-sgRNA expressing cells to determine sensitivity/resistance chemical-genetic interactions mapped in FIG. 4B.

[3] = test system: intracellular BCR-ABL1 in K562 CRISPRi/a cells; assay: Immunoblots of pharmacodynamic markers of BCR-ABL1 inhibition; type: cell-based, human; settings: nanomolar concentrations (10 nM)
Method: FIGS. 3A-3F. […] Data represent two biological replicates. […] Data represent three biological replicates.
Cells (500,000 cells in 2 mL per well) were seeded into 6-well plates and incubated at 37° C. overnight. Following treatment with compounds at the concentrations and times indicated, cells were placed over ice, transferred to 2 mL microcentrifuge tubes, and pelleted at 500 g, 4° C. The pelleted cells were washed twice with ice-cold phosphate-buffered saline (PBS) and stored at −80° C. […] Proteins were separated by polyacrylamide gel electrophoresis (PAGE), transferred to 0.2 μm pore size nitrocellulose membranes (Bio-Rad) and blocked using blocking buffer [5% bovine serum albumin (Millipore) in Tris-buffered saline, 0.1% Tween 20 (TBST) supplemented with 0.02% NaN3]. Membranes were probed with primary antibodies against FKBP12 (ab58072) from Abcam and p-ABL1^Y245 (2861), p-CRKL^Y207 (3181), IFITM1 (13126), IFITM2 (13530), IFITM3 (59212), p-STAT5^Y694 (4322), and Tubulin (3873) from Cell Signaling Technology diluted (1:1000) in blocking buffer. After primary antibody incubation, membranes were treated with IRDye secondary antibodies (LI-COR Biosciences) according to manufacturer's recommendations and scanned on an Odyssey Imaging System (LI-COR Biosciences). Immunoblot scans were processed using ImageStudioLite 5.2.5 (LI-COR).

K562 cells (wild-type) = assay: CellTiter-Glo cell viability, K562 wild-type; settings: Homo sapiens, K562, 72 h, read-out: EC50 (nM) CTG K562 wt
[4] = test system: K562 cells (CRISPR base-edited Bcr-Abl T315I); assay: CellTiter-Glo cell viability, K562 Bcr-Abl T315I; settings: Homo sapiens, K562, 72 h, read-out: EC50 (nM) CTG K562 T315I
[5] = test system: kinases labeled by XO44 in K562 CRISPRi cells; assay: Live cell kinase occupancy profiling with XO44 probe; settings: 100 nM, 4 h pretreatment, then XO44, live K562 CRISPRi cells
ABL1 kinase domain = biological target: T1, ABL1 kinase domain (Homo sapiens, UniProt P00519); assay: ATP-site kinase pulldown (KdELECT competition binding); settings: 100-fold molar excess asciminib
T1 sequence (P00519 242-493 limits assumed): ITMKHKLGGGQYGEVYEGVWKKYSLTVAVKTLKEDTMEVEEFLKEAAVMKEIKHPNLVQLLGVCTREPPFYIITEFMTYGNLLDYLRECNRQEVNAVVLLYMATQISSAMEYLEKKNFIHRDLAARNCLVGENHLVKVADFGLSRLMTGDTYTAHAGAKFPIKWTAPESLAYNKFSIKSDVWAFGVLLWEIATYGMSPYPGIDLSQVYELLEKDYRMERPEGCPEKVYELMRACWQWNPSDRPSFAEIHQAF

artificial membrane permeability by PAMPA [1]: impermeable | EC50 (K562 cells (wild-type)): 2.47 nM | EC50 [4]: > 300 nM
SMILES: Cc1nc(Nc2ncc(C(=O)Nc3c(C)cccc3Cl)s2)cc(N2CCN(C(=O)CCOCCOCCOCCOCCOCCOCCOCCOCCOCCOCCOCCOCCNC(=O)C3CCN(c4ncc(C(=O)Nc5ccc(OC(F)(F)Cl)cc5)cc4-c4ccn[nH]4)CC3)CC2)n1 [DasatiLink-1]
IFITM dependency of potency (IC50 shift in cell viability assay) [2]: validated the IFITM dependency | time required for maximal inhibition of target [3]: multiple hours | intracellular kinase occupancy (kinome-wide selectivity) [5]: observable intracellular occupancy of only a single kinase | effect of excess asciminib on ability to occupy the ATP-site (ABL1 kinase domain): impaired the ability of DasatiLink-1 to occupy the ATP-site
